Experiments:
STK4 = biological target: T1, STK4 (Homo sapiens, UniProt Q13043); experiment: Western blotting of STK4 in whole cell lysates of MM.1S cells (parental or CRBN-knockout); type: cell-based; conditions: for downregulation of STK4 in MM.1S cells (FIG. 1): immunoblotting anti-STK4/anti-GAPDH; for downregulation of STK4 over time (FIG. 3B): 10 μM; for degradation of STK4 in cereblon-knockout cells (FIG. 8): CRBN-K.O. vs parental MM.1S cells; for downregulation of STK4 in MM.1S cells (FIG. 7): 0.6-20 μM; for degradation of STK4 in the presence of MLN4924 (FIG. 9): compound 10 μM, NEDD8 inhibitor MLN4924 1 μM
T1 construct: endogenous in cells; host or cells: MM.1S and CRBN-knockout MM.1S cells
T1 sequence (Q13043 1-487): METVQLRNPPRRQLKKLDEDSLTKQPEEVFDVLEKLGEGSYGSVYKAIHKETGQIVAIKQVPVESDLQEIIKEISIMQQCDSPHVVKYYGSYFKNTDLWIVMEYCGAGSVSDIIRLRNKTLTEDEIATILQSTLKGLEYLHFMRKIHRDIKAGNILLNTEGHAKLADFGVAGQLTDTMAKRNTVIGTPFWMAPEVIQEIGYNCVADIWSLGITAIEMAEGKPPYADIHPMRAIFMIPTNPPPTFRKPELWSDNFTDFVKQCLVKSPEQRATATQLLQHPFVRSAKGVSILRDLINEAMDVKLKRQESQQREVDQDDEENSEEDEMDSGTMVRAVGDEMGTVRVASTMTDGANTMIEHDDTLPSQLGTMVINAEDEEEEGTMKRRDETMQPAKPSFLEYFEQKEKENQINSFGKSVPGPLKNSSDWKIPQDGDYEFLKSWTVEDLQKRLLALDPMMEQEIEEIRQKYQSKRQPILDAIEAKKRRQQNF
Text: MM.1S, KMS20 and H929 cells are counted, diluted and plated. Cells are then […] with DMSO or different concentration of a compound of the present application for 6 hrs, 24 hrs or 48 hrs. MM cells are then collected and centrifuged at RT and the pellets are re-suspended in lysis buffer. Cell lysates are subjected to sodium dodecyl sulfate-polyacrylamide gel electrophoresis SDS-PAGE, transferred to nitrocellulose membranes, and immunoblotted with different antibodies.
MM.1S and CRBN knockout MM.1S cells were counted, diluted and plated in six-well plates to a final concentration of 500,000 cells/well. Cells were then harvested with DMSO or different concentration of a compound of the present application (4 h-24 h). MM cells were then collected and centrifuged for 5 min, 1300 rpm at RT. The pellets were re-suspended in cell lysis buffer (20 mM Tris-HCl (pH 7.5), 150 mM NaCl, 1 mM Na2EDTA, 1 mM EGTA, 1% Triton, 2.5 mM sodium pyrophosphate, 1 mM beta-glycerophosphate, 1 mM Na3VO4, 1 μg/ml leupeptin. Cell lysates were subjected to sodium dodecyl sulfate-polyacrylamide gel electrophoresis SDS-PAGE, transferred to nitrocellulose membranes, and immunoblotted with different antibodies: MST1 (STK4) (#14946), K48-linkage Specific Polyubiquitin (#8081) and GAPDH (#5174) from Cell Signaling, Beverly, Mass., United States: IKZF1 (AF4984) (from R&D Systems, Mineapolis, Minn., United States). All antibodies were diluted 1:1000, except for GAPDH antibody (1:4,000 dilution).

[1] = test system: CRBN-knockout MM.1S cells; experiment: MTT cell growth assay, CRBN-knockout MM.1S cells; type: cell-based, human; conditions: for cytotoxicity in CRBN-knockout cells (FIG. 5): parental or CRBN-knockout MM.1S cells, 24 h, 0.1-10 μM, MTT; for cytotoxicity in CRBN-knockout cells (FIG. 11): 0.2-20 μM, 72 h
Procedure: (§1) Dexamethasone-sensitive MM.1S human MM cell line were kindly provided by Dr. Steven Rosen (Northwestern University, Chicago, Ill., United States). Creblon stable knockout MM.1S cells were established in our laboratory using lentiviral CRBN shRNA system. The cell lines were routinely tested for Mycoplasma, and genotyped with two different methods. Peripheral blood mononuclear cells were obtained from healthy volunteer by Ficoll-Paque centriguation. All MM cell lines and PBMCs were cultured in RPMI-1640 media (EuroClone, Pero, Italy) containing 10% fetal bovine serum (FBS, GIBCO, Life technologies, Carlsbad, Calif., United States), and a mix of penicillin and streptomycin to 1% from EuroClone (ECB3001).
(§2) MM.1S and CRBN-knockout MM.1S cells were counted and diluted to a final concentration of 400,000 cells/mL. The cell were plated in 96-well plates and mixed with an equal volume of culture media containing DMSO or increasing concentration of a compound of the present application diluted in DMSO (the final DMSO concentration is equal between all tested samples), using a STARlet Robot (Hamiltonrobotics, Reno, Nev., United States). Cells with increasing concentration of compound of the present application and DMSO were harvested at different time points (24 hrs to 72 hrs). For assessment of celll growth MTT assay, the 3-[4,5 dimethylthiazol-2-yl]-2,5 diphenyltetrazolium bromide-MTT (Sigma-Aldrich, St. Louis, Mo., Unites States) colorimetric assay was used. At the various time points (24-72 hrs), 10 μL of 5 mg/mL MTT were added to cells. After 4 hrs incubation at 37° C., medium was discarded and 100 μL MTT stop solution (Isopropanol with 1 N HCl) was used to dissolve MTT metabolic products. Absorbance was read at 570/630 nm.

[2] = test system: Peripheral blood mononuclear cells (PBMCs) from healthy volunteer; experiment: MTT cell growth assay, peripheral blood mononuclear cells; type: cell-based, human; conditions: PBMCs from healthy volunteer vs MM.1S cells, 48 h
Procedure: as §1
MM.1S and CRBN-knockout MM.1S cells were counted and diluted to a final concentration of 400,000 cells/mL. The cell were plated in 96-well plates and mixed with an equal volume of culture media containing DMSO or increasing concentration of a compound of the present application diluted in DMSO (the final DMSO concentration is equal between all tested samples), using a STARlet Robot (Hamiltonrobotics, Reno, Nev., United States). Cells with increasing concentration of compound of the present application and DMSO were harvested at different time points (24 hrs to 72 hrs). […] Absorbance was read at 570/630 nm.

[3] = test system: MM.1S cells resistant to lenalidomide (Len-R #1); experiment: MTT cell growth assay, lenalidomide-resistant MM.1S cells; type: cell-based, human; conditions: Len-R #1 MM.1S cells, 0.2-20 μM, 72 h
MM.1S cells = experiment: MTT cell growth assay, MM.1S cells; type: cell-based, human; conditions: 72 h; for MM cell growth inhibition (FIG. 10): 0.2-20 μM; for potency in inhibiting MM cell growth as compared to lenalidomide (FIG. 15): comparator lenalidomide (Len)
Procedure: as §1, §2

[4] = MM.1S cells, 24 h, indicated concentrations

SMILES | downregulation of STK4 over time (FIG. 3A) (STK4; MM.1S cells, 2.5 μM, 4-24 h) | downregulation of STK4 in MM.1S cells (FIG. 2) (STK4; MM.1S cells, 24 h, 0.15-5 μM, Western blotting) | downregulation of STK4 in MM.1S cells (FIG. 1) (STK4; [4]) | degradation of STK4 in cereblon-knockout cells (FIG. 4) (STK4; cereblon (CRBN)-knockout vs parental MM.1S cells, 24 h, indicated concentrations) | cytotoxicity in CRBN-knockout cells (FIG. 5) [1] | downregulation of STK4 over time (FIG. 3B) (STK4; MM.1S cells, 4-24 h) | degradation of STK4 in cereblon-knockout cells (FIG. 8) (STK4; 24 h) | downregulation of STK4 in MM.1S cells (FIG. 7) (STK4; MM.1S cells, 24 h) | degradation of STK4 in the presence of MLN4924 (FIG. 9) (STK4; MM.1S cells, 24 h) | cytotoxicity in CRBN-knockout cells (FIG. 11) [1] | cytotoxicity to peripheral blood mononuclear cells (FIG. 13A/13B) [2] | cytotoxicity in acquired lenalidomide-resistant cells (FIG. 12B) [3] | MM cell growth inhibition (FIG. 10) (MM.1S cells) | potency in inhibiting MM cell growth as compared to lenalidomide (FIG. 15) (MM.1S cells)
Nc1ncc(-c2ccc(S(=O)(=O)N(CCCNC(=O)CCOCCOCCOCCOCCOCCNc3cccc4c3C(=O)N(C3CCC(=O)NC3=O)C4=O)C3CC3)cc2F)cc1-c1ccc2c(c1)CCNC2=O (centres unmarked) [Compound I-19, N-(3-((4-(6-amino-5-(1-oxo-1,2,3,4-tetrahydroisoquinolin-6-yl)pyridin-3-yl)-N-cyclopropyl-3-fluorophenyl)sulfonamido)propyl)-1-((2-(2,6-dioxopiperidin-3-yl)-1,3-dioxoisoindolin-4-yl)amino)-3,6,9,12,15-pentaoxaoctadecan-18-amide] | downregulation of STK4 by compounds of the application in a time-dependent fashion | dose dependent downregulation of STK4 | dose dependent downregulation of STK4 | absence of degradation of STK4 | decrease in cytotoxicity | – | – | – | – | – | – | – | – | –
Nc1ncc(-c2ccc(S(=O)(=O)Nc3cccc(NC(=O)CCOCCOCCOCCOCCOCCOc4cccc5c4C(=O)N(C4CCC(=O)NC4=O)C5=O)c3)cc2F)cc1-c1ccc2c(c1)CCNC2=O (centres unmarked) [Compound I-17] | – | – | – | – | – | downregulation of STK4 by compounds of the application in a time-dependent fashion | – | – | – | – | – | – | – | –
Nc1ncc(-c2ccc(S(=O)(=O)NC3CCCN(C(=O)CCOCCOCCOCCOCCOCCNc4cccc5c4C(=O)N(C4CCC(=O)NC4=O)C5=O)C3)cc2F)cc1-c1ccc2c(c1)CCNC2=O (centres unmarked) [Compound I-20, 4-(6-amino-5-(1-oxo-1,2,3,4-tetrahydroisoquinolin-1-yl)pyridin-3-yl)-N-(1-(1-((2-(2,6-dioxopiperidin-3-yl)-1,3-dioxoisoindolin-4-yl)amino)-3,6,9,12,15-pentaoxaoctadecan-18-oyl)piperidin-3-yl)-3-fluorobenzenesulfonamide] | – | – | dose dependent downregulation of STK4 | – | – | – | – | – | – | – | – | – | – | –
Nc1ncc(-c2ccc(S(=O)(=O)Nc3ccc(NC(=O)CCOCCOCCOCCOCCOCCNc4cccc5c4C(=O)N(C4CCC(=O)NC4=O)C5=O)cc3)cc2F)cc1-c1ccc2c(c1)CCNC2=O (centres unmarked) [Compound I-7, N-(4-((4-(6-amino-5-(1-oxo-1,2,3,4-tetrahydroisoquinolin-6-yl)pyridin-3-yl)-3-fluorophenyl)sulfonamido)phenyl)-1-((2-(2,6-dioxopiperidin-3-yl)-1,3-dioxoisoindolin-4-yl)amino)-3,6,9,12,15-pentaoxaoctadecan-18-amide] | – | – | – | – | – | – | absence of degradation of STK4 | dose dependent downregulation of STK4 | absence of degradation of STK4 | decrease in cytotoxicity | absence of cytotoxic | decrease in cytotoxicity | potent MM cell growth inhibition | greater potency
Nc1ncc(-c2ccc(S(=O)(=O)Nc3cccc(NC(=O)CCOCCOCCOCCOCCOCCNc4cccc5c4C(=O)N(C4CCC(=O)NC4=O)C5=O)c3)cc2F)cc1-c1ccc2c(c1)CCNC2=O (centres unmarked) [Compound I-10] | – | – | dose dependent downregulation of STK4 | – | decrease in cytotoxicity | downregulation of STK4 by compounds of the application in a time-dependent fashion | absence of degradation of STK4 | dose dependent downregulation of STK4 | absence of degradation of STK4 | decrease in cytotoxicity | absence of cytotoxic | decrease in cytotoxicity | potent MM cell growth inhibition | greater potency

Reference: patent US11447467B2, “Compounds for the degradation of STK4 and treatment of hematologic malignancies” (DANA-FARBER CANCER INSTITUTE, INC., priority 2017, dated 2022)
